In ChEMBL document CHEMBL1201862, “PubChem BioAssay data set” (2004):
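These data come from cells grown in 96-well plates and exposed to compound for 48 hours at five concentrations. GI50: concentration for 50% inhibition of growth.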 Activity calls are given as the source filed them. No stated cut-off is given here; in the data, active = GI50 up to about 1.1 µM and inactive = higher.

How the values were obtained:
Assay in all cases: NCI-60 cell line screen, 48 h
[1] = tested on: HT-29
[2] = tested on: HOP-92
[3] = tested on: CAKI-1
[4] = tested on: M14
[5] = tested on: OVCAR-4
[6] = tested on: SF-295
[7] = tested on: LOX IMVI
[8] = tested on: OVCAR-3
[9] = tested on: UACC-257
[10] = tested on: SW-620
[11] = tested on: Hs-578T
[12] = tested on: MDA-N
[13] = tested on: SK-OV-3
[14] = tested on: OVCAR-5
[15] = tested on: DU-145
[16] = tested on: ACHN
[17] = tested on: TK-10
[18] = tested on: RPMI-8226
[19] = tested on: IGROV-1
[20] = tested on: MOLT-4

Measured: GI50

CCOC(=O)C(Cc1cn(C(C)=O)c2ccccc12)P(=O)(OCC)OCC (stereo not given)
inactive: [1] > 100 µM | [2] > 100 µM | [3] > 100 µM | [4] > 100 µM | [5] > 100 µM | [6] > 100 µM | [7] > 100 µM | [8] > 100 µM | [9] > 100 µM | [10] > 100 µM | [11] > 100 µM | [12] > 100 µM | [13] > 100 µM | [14] > 100 µM | [15] > 100 µM | [16] > 100 µM | [17] > 100 µM | [18] > 100 µM | [19] > 100 µM | [20] > 100 µM

Clc1ccc(/N=c2\oc3ccccc3cc2-c2nc3ccccc3[nH]2)c(Cl)c1
inactive: [1] > 100 µM | [2] 43.6 µM | [3] > 100 µM | [4] > 100 µM | [5] > 100 µM | [6] > 100 µM | [7] > 100 µM | [8] > 100 µM | [9] > 100 µM | [10] > 100 µM | [11] 34.2 µM | [12] 83.6 µM | [13] 49.9 µM | [14] > 100 µM | [15] > 100 µM | [16] 31 µM | [17] 23.8 µM | [18] > 100 µM | [19] > 100 µM | [20] > 100 µM
